The experiment deals with T1, HCV polymerase (NS5B570n-Con1) (Hepatitis C virus genotype 1b, UniProt Q9WMX2).
T1 construct: a 21 amino acid C-terminal deletion of full-length HCV polymerase; made in house; host or cells: E. coli BL21(DE3) pLysS, plasmid pET17b
The experiment in a line: biochemical. Details: species or system HCV Con1 strain. How it is done:
The enzymatic activity of HCV polymerase (NS5B570n-Con1) was measured as the incorporation of radiolabeled nucleotide monophosphates into acid insoluble RNA products. Unincorporated radiolabeled substrate was removed by filtration and scintillant was added to the washed and dried filter plate containing radiolabeled RNA product. The amount of RNA product generated by NS5B570n-Con1 at the end of the reaction was directly proportional to the amount of light emitted by the scintillant.
The HCV polymerase used in the enzymatic activity assay is a 21 amino acid C-terminal deletion of full-length HCV polymerase derived from HCV Con1 strain, genotype 1b (GenBank accession number AJ242654) (NS5B570n-Con1). The NS5B570n-Con1 was sub-cloned downstream to the T7 promoter of the plasmid expression construct pET17b and transformed into E. coli strain BL21(DE3) pLysS for protein expression. A single colony was used to start an innoculum for a 10 L culture in LB media supplemented with 100 μg/mL ampicillin at 37° C. Protein expression was induced by the addition of 0.25 mM isopropyl-β-D-thiogalactopyranoside (IPTG) when the optical density of the culture at […] was 0.8. Induction of protein expression was carried out at 30° C. for 16 h after which the cells were harvested by centrifugation. NS5B570n-Con1 was purified to homogeneity using a three-column purification protocol including subsequent column chromatography on Ni-NTA, SP-Sepharose HP and Superdex 75 resins.
Enzymatic reactions in the presence of cIRES RNA template (see section [0300]) contained 20 nM cIRES RNA, 20 nM NS5B570n-Con1 enzyme, 0.5 μCi of tritiated UTP (Perkin Elmer catalog no. TRK-412; specific activity: 30 to 60 Ci/mmol), 1 μM each ATP, CTP, and GTP, 40 mM Tris-HCl pH 8.0, 40 mM NaCl, 4 mM DTT (dithiothreitol), 4 mM MgCl2, 5 μl of compound serial diluted in DMSO, and nuclease-free water to a final reaction volume of 50 μl. Enzymatic reactions in the presence of 20 nM cIRES template, 20 nM NS5B570n-Con1 enzyme, 1 μCi of tritiated UTP (Perkin Elmer catalog no. TRK-412; specific activity: 30 to 60 Ci/mmol), 40 mM Tris-HCl pH 8.0, 40 mM NaCl, 4 mM DTT (dithiothreitol), 4 mM MgCl2, 5 μl of compound serial diluted in DMSO, and nuclease-free water to a final reaction volume of 50 μl. Reaction mixtures were assembled in 96-well filter plates (cat #MADVNOB, Millipore Co.) and incubated for 2 h at 30° C. Reactions were stopped by addition of 10% final (v/v) trichloroacetic acid and incubated for 40 min at 4° C. Reactions were filtered, washed with 8 reaction volumes of 10% (v/v) trichloroacetic acetic acid, 4 reaction volumes of 70% (v/v) ethanol, air dried, and 25 μl of scintillant (Microscint 20, Perkin-Elmer) was added to each reaction well.
Two RNA templates can be used to assay compounds described herein. The cIRES RNA template is 377 nucleotide long and consisting of a partial complementary sequence (36 nucleotides) of the core protein, followed by 341 nucleotide of the complementary sequence of the internal ribosome entry site. The poly A RNA template (GE Amersham catalog number 27-4110) was a homopolymeric RNA pre-annealed to a oligo(rU)16 primer at a molar ratio of 3-to-1 (primer-template). The cIRES template was used in the assay unless otherwise noted.
The amount of light emitted from the scintillant was converted to counts per minute (CPM) on a Topcount® plate reader (Perkin-Elmer, Energy Range: Low, Efficiency Mode Normal, Count Time: 1 min, Background Subtract: none, Cross talk reduction: Off).
Data was analyzed in Excel® (Microsoft®) and ActivityBase® (Idbs®). The reaction in the absence of enzyme was used to determine the background signal, which was subtracted from the enzymatic reactions. […] All data was expressed as a percentage of the positive control. The compound concentration at which the enzyme-catalyzed rate of RNA synthesis was reduced by 50% (IC50) was calculated by fitting

Data on 39 compounds can be found in patent US8067442B2, “Heterocyclic antiviral compounds” (Roche Palo Alto LLC, priority 2008, dated 2011).

Usually IC50 stands for the midpoint of a concentration-inhibition curve. A high value points to a need for much substance.

In turn, `Cc1ccsc1C(=O)c1coc2c(C(C)(C)C)cc(-c3ccc[nH]c3=O)cc12` [Compound I-31] gave an IC50 of 69 nM. In other words, the double-digit nanomolar range. Then `CC(C)(C)c1cc(-c2ccc[nH]c2=O)cc2c(C(=O)N3CCC(NC(=O)C(F)(F)F)C3)coc12` (stereo not drawn) [Compound I-60], with 51 nM; and `CC(C)(C)c1cc(-c2ccc[nH]c2=O)cc2c(C(=O)N3CCOC(CO)C3)coc12` (stereo not drawn) [Compound I-15], with 325 nM. Next, `COCCN(CCOC)C(=O)c1coc2c(C(C)(C)C)cc(-c3ccc[nH]c3=O)cc12` [Compound I-19]: 4350 nM; `CC(C)(C)c1cc(-c2ccc[nH]c2=O)cc2c(C(=O)N3CCCCC3)coc12` [Compound I-13]: 48 nM. Then `CC(C)(C)c1cc(-c2ccc[nH]c2=O)cc2c(C(=O)N3CCOC(CNS(C)(=O)=O)C3)csc12` (stereo not drawn) [Compound 112, N-{4-[7-tert-Butyl-5-(2-oxo-1,2-dihydro-pyridin-3-yl)-benzo[b]thiophene-3-carbonyl]-morpholin-2-ylmethyl}-methanesulfonamide], with 4 nM; and `CC(C)(C)c1cc(-c2ccc[nH]c2=O)cc2c(-c3cccc(CN)c3)coc12` [Compound I-62], with 893 nM. `CC(C)(C)c1cc(-c2ccc[nH]c2=O)cc2c(C(=O)N3CCCC(CNS(C)(=O)=O)C3)coc12` (stereo not drawn) [Compound I-90]: the IC50 turned out to be 6 nM. In turn, `CC(C)(C)c1cc(-c2ccc[nH]c2=O)cc2c(C(=O)N3CCCC3)coc12` [Compound I-51] yielded an IC50 of 12 nM. For `CC(C)(C)OC(=O)NCC1CCN(C(=O)c2coc3c(C(C)(C)C)cc(-c4ccc[nH]c4=O)cc23)C1` (stereo not drawn) [Compound I-45], 76 nM corresponded to half-maximal inhibition (IC50).

In the case of `CC(C)(C)c1cc(-c2ccc[nH]c2=O)cc2c(C(=O)N3CCOCC3)coc12` [Compound I-7], 142 nM corresponded to half-maximal inhibition (IC50). Next, `CC(C)(C)c1cc(-c2ccc[nH]c2=O)cc2c(C(=O)N3CCCC(F)(CNS(C)(=O)=O)C3)coc12` (stereo not drawn) [Compound 124, N-{1-[7-tert-Butyl-5-(2-oxo-1,2-dihydro-pyridin-3-yl)-benzofuran-3-carbonyl]-3-fluoro-piperidin-3-ylmethyl}-methanesulfonamide]: 6 nM; `CC(C)(C)c1cc(-c2ccc[nH]c2=O)cc2c(C(=O)N3CC[C@@H](CNS(C)(=O)=O)C3)coc12` [Compound I-73, N-{(R)-1-[7-tert-Butyl-5-(2-oxo-1,2-dihydro-pyridin-3-yl)-benzofuran-3-carbonyl]-pyrrolidin-3-ylmethyl}-methanesulfonamide]: 21 nM. Next, `CN(C)[C@@H]1CCN(C(=O)c2coc3c(C(C)(C)C)cc(-c4ccc[nH]c4=O)cc23)C1` [Compound I-67]: 889 nM; `CC(C)(C)c1cc(-c2cc(F)c[nH]c2=O)cc2c(-c3ccc(CNS(C)(=O)=O)cc3)coc12` [Compound I-74]: 37 nM; `CC(C)(C)c1cc(-c2ccc[nH]c2=O)cc2c(-c3cccc(O)c3)coc12` [Compound I-34]: 24 nM. In turn, `CC(C)(C)c1cc(-c2ccc[nH]c2=O)cc2c(-c3ccc(CNS(C)(=O)=O)nc3)coc12` [Compound I-93, N-{5-[7-tert-Butyl-5-(2-oxo-1,2-dihydro-pyridin-3-yl)-benzofuran-3-yl]-pyridin-2-ylmethyl}-methanesulfonamide] registered a 50% inhibitory concentration (IC50) of 12 nM. Next, `CC(C)(C)OC(=O)N[C@H]1CCCN(C(=O)c2coc3c(C(C)(C)C)cc(-c4ccc[nH]c4=O)cc23)C1` [Compound I-40]: 1410 nM; `CC(C)(C)c1cc(-c2ccc[nH]c2=O)cc2c(C(=O)N3CCC(CO)C3)coc12` (stereo not drawn) [Compound I-70]: 53 nM.

`CCOC(=O)c1coc2c(C(C)(C)C)cc(-c3ccc[nH]c3=O)cc12` [Compound I-3, 7-tert-butyl-5-(2-oxo-1,2-dihydro-pyridin-3-yl)-benzofuran-3-carboxylic acid ethyl ester] returned a concentration for half-maximal inhibition (IC50) of 258 nM. Take `CC(C)(C)c1cc(-c2ccc[nH]c2=O)cc2c(C(=O)N3CCSC3)coc12` [Compound I-71]: the IC50 came to 50 nM.

`CC(C)(C)OC(=O)N[C@@H]1CCCN(C(=O)c2coc3c(C(C)(C)C)cc(-c4ccc[nH]c4=O)cc23)C1` [Compound I-38] showed a half-inhibitory concentration (IC50) of 132 nM.

For `CC(C)(C)c1cc(-c2ccc[nH]c2=O)cc2c(C(=O)N3CCCC(C(N)=O)C3)coc12` (stereo not drawn) [Compound I-61], the concentration for half-maximal inhibition (IC50) worked out at 66 nM. Turning to `CC(C)(C)c1cc(-c2ccc[nH]c2=O)cc2c(C(=O)Nc3ccccc3)coc12` [Compound I-23], the 50% inhibitory concentration (IC50) was found to be 425 nM. Against the preceding compound, the IC50 is about 6.4-fold higher. Next, `CC(C)(C)c1cc(-c2ccc[nH]c2=O)cc2c(C(=O)NC3(CO)CCCC3)coc12` [Compound I-18]: 4800 nM. The compound `CC(C)(C)c1cc(-c2ccc[nH]c2=O)cc2c(C(=O)N3CCC[C@H](NS(C)(=O)=O)C3)coc12` [Compound I-47] yielded an IC50 of 172 nM. Next, `CC(C)(C)c1cc(-c2ccc[nH]c2=O)cc2c(C(=O)O)coc12` [Compound I-4, 7-tert-butyl-5-(2-oxo-1,2-dihydro-pyridin-3-yl)-benzofuran-3-carboxylic acid]: 381 nM; `CC(C)(C)c1cc(-c2ccc[nH]c2=O)cc2c(C(=O)N3CCC(C(N)=O)CC3)coc12` [Compound I-58]: 282 nM. Compound `Cn1cc(C#N)c2cc(-c3ccc[nH]c3=O)cc(C(C)(C)C)c21` [Compound I-110] displayed an IC50 of 314 nM. Then `CC(C)(C)c1cc(-c2ncc[nH]c2=O)cc2c(C(=O)N3CCOC(CNS(C)(=O)=O)C3)coc12` (stereo not drawn) [Compound 100, N-{4-[7-tert-Butyl-5-(3-oxo-3,4-dihydro-pyrazin-2-yl)-benzofuran-3-carbonyl]-morpholin-2-ylmethyl}-methanesulfonamide], with 28 nM. In the case of `CNC(=O)c1coc2c(C(C)(C)C)cc(-c3ccc[nH]c3=O)cc12` [Compound I-22], the IC50 turned out to be 770 nM. `CC(C)NC(=O)c1coc2c(C(C)(C)C)cc(-c3ccc[nH]c3=O)cc12` [Compound I-9] returned an IC50 of 1540 nM.

On to `CC(C)(C)OC(=O)NC1CCN(C(=O)c2coc3c(C(C)(C)C)cc(-c4ccc[nH]c4=O)cc23)CC1` [Compound I-39], for which the concentration for half-maximal inhibition (IC50) is 4370 nM. Against the preceding compound, the IC50 is about 2.8-fold higher.

For the compound `CCN(CCOC)C(=O)c1coc2c(C(C)(C)C)cc(-c3ccc[nH]c3=O)cc12` [Compound I-25], the IC50 is 1330 nM. Then `COC(=O)C1COc2c1cc(-c1ccc[nH]c1=O)cc2C(C)(C)C` (stereo not drawn) [Compound I-26, 7-tert-Butyl-5-(2-oxo-1,2-dihydro-pyridin-3-yl)-2,3-dihydro-benzo furan-3-carboxylic acid methyl ester], with 37 nM; and `CN(C)[C@H]1CCN(C(=O)c2coc3c(C(C)(C)C)cc(-c4ccc[nH]c4=O)cc23)C1` [Compound I-53], with 454 nM; and `CC(C)(C)c1cc(-c2ccc[nH]c2=O)cc2c(-c3cccc(C#N)c3)coc12` [Compound I-32], with 38 nM. For `CC(C)(C)c1cc(-c2ccc[nH]c2=O)cc2c(C(=O)N3CCC(O)(C(N)=O)CC3)coc12` [Compound I-64], the half-maximal inhibitory concentration (IC50) amounted to 97 nM. This IC50 is about 2.6-fold higher than that of the compound before. In the case of `COc1cccc(C(=O)c2coc3c(C(C)(C)C)cc(-c4ccc[nH]c4=O)cc23)c1` [Compound I-30, 3-[7-tert-Butyl-3-(3-methoxy-benzoyl)-benzofuran-5-yl]-1H-pyridin-2-one], the IC50 stood at 329 nM.
